Source: patent US6683184B2, “Piperazine derivatives and process for the preparation thereof” (Samjin Pharmaceutical Co., Ltd., priority 1999, dated 2004)
In brackets after ≈: the same amount, converted by molar mass. Like-named read-outs stand apart in the source and are kept apart here. One block for each compound: values may come before it.

Key:
[1] = test system: SKMEL-2 (human melanoma); experiment: In vitro antitumor effect against human tumor cell lines, SRB assay, SKMEL-2; type: cell-based; settings: SK-MEL-2 cells, 48 hours; for IC50: Homo sapiens, read-out: ED50 SK-MEL-2
Description: (§1) In vitro antitumor effect against human tumor cell lines.
(§2) a. Human solid tumor cell lines, A549(non-small lung cell), SKMEL-2(melanoma), HCT-15(colon), SKOV-3(ovarian), XF-498(CNS) were cultured at 37° C. in 5% CO2 incubators using RPMI 1640 media containing 10% FBS, while they were transfer-cultured successively once or twice per week. Cell cultures were dissolved in a solution of 0.25% trypsin and 3 mM CDTA PBS(−) and then cells were separated from media which the cells were sticked on.
(§3) b. 5×10^3˜2×10^4 cells were added into each well of 96-well plate and cultured in 5% CO2 incubator, at 37° C., for 24 hours.
(§4) c. Each sample drug was dissolved in a little DMSO and diluted with the used medium to a prescribed concentration for experiments, wherein the final concentration of DMSO was controlled below 0.5%.
(§5) d. Medium of each well cultured for 24 hours as above b. was removed by aspiration. Each 200 μl of drug samples prepared in c. was added into each well and the wells were cultured for 48 hours. Tz(time zero) plates were collected at the point of time drugs were added.
(§6) e. According to the SRB assay method, cell fixing with TCA, staining with 0.4% SRB solution, washing with 1% acetic acid and elution of dye with 10 mM Tris solution were carried out on Tz plates and culture-ended plates, whereby OD values were measured at 520 nm.
(§7) a. Time zero(Tz) value was determined with measuring the SRB protein amounts of the Tz plates collected at the point of time drugs were added.
(§8) b. Control value(C) was determined with the OD values of wells untreated with a drug.
(§9) c. Drug-treated test value(T) was determined with the OD values of drug-treated wells.
(§10) d. Effects of drugs were estimated with growth stimulation, net growth inhibition, net killing etc., being calculated from Tz, C and T.
(§11) e. If T≧Tz, cellular response function was calculated by 100×(T−Tz)/(C−Tz), and if T<Tz, by 100×(T−Tz)/Tz.

[2] = Acute toxicity test (LD50), Litchfield-Wilcoxon method; type: in vivo; settings: mouse, in vivo, ICR mice, male, observed 14 days
[3] = test system: XF 498 (human CNS); experiment: In vitro antitumor effect against human tumor cell lines, SRB assay, XF 498; type: cell-based; settings: 48 hours; for IC50: Homo sapiens, XF498, XF-498 cells, read-out: ED50 XF-498
Description: as §1, §2, §3, §4, §5, §6, §7, §8, §9, §10, §11

[4] = test system: A549 (human non-small lung cell); experiment: In vitro antitumor effect against human tumor cell lines, SRB assay, A549; type: cell-based; settings: A549 cells, 48 hours; for IC50: Homo sapiens, read-out: ED50 A 549
Description: as §1, §2, §3, §4, §5, §6, §7, §8, §9, §10, §11

[5] = test system: HCT-15 (human colon); experiment: In vitro antitumor effect against human tumor cell lines, SRB assay, HCT-15; type: cell-based; settings: HCT 15 cells, 48 hours; for IC50: Homo sapiens, read-out: ED50 HCT 15
Description: as §1, §2, §3, §4, §5, §6, §7, §8, §9, §10, §11

[6] = test system: SKOV-3 (human ovarian); experiment: In vitro antitumor effect against human tumor cell lines, SRB assay, SKOV-3; type: cell-based; settings: SK-OV-3 cells, 48 hours; for IC50: Homo sapiens, read-out: ED50 SK-OV-3
Description: as §1, §2, §3, §4, §5, §6, §7, §8, §9, §10, §11

[7] = test system: P388 (mouse lymphoid neoplasma cell); experiment: In vitro antitumor effects against animal leukemia cells, dye exclusion assay; type: cell-based; settings: 48 hours, trypan blue dye exclusion, read-out: P388 (IC50, concentration showing 50% cell growth inhibition compared with the control)
Description: In vitro antitumor effects against animal leukemia cells.
Tumor cell line: P388 (mouse lymphoid neoplasma cell)
B. Method: Dye Exclusion Assay.
1) Concentrations of P388 cells being cultured in RPMI 1640 media containing 10% FBS were regulated to 1×10^6 cells/ml.
2) Sample drugs of respective concentrations diluted in the ratio of log doses were added into each cell culture and cultured at 37° C., for 48 hours, in […] incubator, and then viable cell numbers were measured by dye exclusion test using trypan blue.

[8] = test system: ICR mice; experiment: Acute toxicity test (LD50), Litchfield-Wilcoxon method; type: in vivo; settings: male, i.v., observed 14 days

SMILES: COc1cc(OC)cc(N2CCN(C(=O)Nc3nc4ccccc4nc3OC)CC2)c1 [Example 38, 1-[(2-Methoxyquinoxalin-3-yl)aminocarbonyl]-4-(3,5-dimethoxyphenyl)piperazine]
IC50 [1]: 0.04 ng/mL (≈ 0.0945 nM)
LD50 at 14 days ([2]; iv, i.v., read-out: LD50 i.v.): 97 mg/kg
LD50 at 14 days ([2]; po, p.o., read-out: LD50 p.o.): 410 mg/kg
IC50 [3]: 0.11 ng/mL (≈ 0.26 nM)
IC50 [4]: 0.03 ng/mL (≈ 0.0708 nM)
IC50 [5]: 0.13 ng/mL (≈ 0.307 nM)
IC50 [6]: 0.09 ng/mL (≈ 0.213 nM)
IC50 [7]: 10 ng/mL (≈ 23.6 nM)

SMILES: COc1nc(C)c(C)cc1N=C(NO)N1CCN(c2cc(C)cc(C)c2)CC1 [Example 99, N-Hydroxy-N′-(5,6-dimethyl-2-methoxypyridin-3-yl)-[4-(3,5-dimethylphenyl)piperazin-1-yl]carboxyimidamide]
ED50 SK-MEL-2 [1]: 6 ng/mL (≈ 15.6 nM)
LD50 i.v. [8]: >200 mg/kg
ED50 XF-498 ([3]; XF-498 cells): 10 ng/mL (≈ 26.1 nM)
ED50 A 549 [4]: 12 ng/mL (≈ 31.3 nM)
ED50 HCT 15 [5]: 3 ng/mL (≈ 7.82 nM)
ED50 SK-OV-3 [6]: 8 ng/mL (≈ 20.9 nM)

SMILES: COc1nc(C)c(C)cc1N=C(NO)N1CCN(c2cccc(Br)c2)CC1 [Example 104, N-Hydroxy-N′-(5,6-dimethyl-2-methoxypyridin-3-yl)-[4-(3-bromophenyl)piperazin-1-yl]carboxyimidamide]
LD50 i.v. [8]: 212 mg/kg

SMILES: COc1nc2ccccc2nc1NC(=O)N1CCN(c2cc([N+](=O)[O-])cc([N+](=O)[O-])c2)CC1 [Example 48, 1-[(2-Methoxyquinoxalin-3-yl)aminocarbonyl]-4-(3,5-dinitrophenyl)piperazine]
IC50 [1]: 0.3 ng/mL (≈ 0.662 nM)
IC50 [3]: 4 ng/mL (≈ 8.82 nM)
IC50 [4]: 1 ng/mL (≈ 2.21 nM)
IC50 [5]: 2 ng/mL (≈ 4.41 nM)
IC50 [6]: 7 ng/mL (≈ 15.4 nM)
IC50 [7]: 390 ng/mL (≈ 860 nM)

SMILES: COc1nc(C)c(C)nc1NC(=O)N1CCN(c2cc(C)cc(C)c2)CC1 [Example 7, 1-[(5,6-Dimethyl-2-methoxypyrazin-3-yl)aminocarbonyl]-4-(3,5-dimethylphenyl)piperazine]
IC50 [1]: 2.3 ng/mL (≈ 6.23 nM)
LD50 at 14 days ([2]; iv, i.v., read-out: LD50 i.v.): 75 mg/kg
IC50 [3]: 2.7 ng/mL (≈ 7.31 nM)
IC50 [4]: 2.4 ng/mL (≈ 6.5 nM)
IC50 [5]: 2.8 ng/mL (≈ 7.58 nM)
IC50 [6]: 7.2 ng/mL (≈ 19.5 nM)
IC50 [7]: 20 ng/mL (≈ 54.1 nM)

SMILES: COc1nc(C)c(C)nc1NC(=O)N1CCN(c2cc([N+](=O)[O-])cc([N+](=O)[O-])c2)CC1 [Example 15, 1-[(5,6-Dimethyl-2-methoxypyrazin-3-yl)aminocarbonyl]-4-(3,5-dinitrophenyl)piperazine]
IC50 [1]: 38 ng/mL (≈ 88.1 nM)
IC50 [3]: 96 ng/mL (≈ 223 nM)
IC50 [4]: 79 ng/mL (≈ 183 nM)
IC50 [5]: 71 ng/mL (≈ 165 nM)
IC50 [6]: 184 ng/mL (≈ 427 nM)
IC50 [7]: 700 ng/mL (≈ 1620 nM)

Second part, the compound after the results:

IC50 [1]: 11 ng/mL (≈ 25 nM)
IC50 [3]: 14 ng/mL (≈ 31.9 nM)
IC50 [4]: 19 ng/mL (≈ 43.2 nM)
IC50 [5]: 32 ng/mL (≈ 72.8 nM)
IC50 [6]: 57 ng/mL (≈ 130 nM)
IC50 [7]: 340 ng/mL (≈ 774 nM)
SMILES: COc1cc(OC)cc(N2CCN(C(=S)Nc3nc4ccccc4nc3OC)CC2)c1 [Example 64, 1-[(2-Methoxyquinoxalin-3-yl)aminothiocarbonyl]-4-(3,5-dimethoxyphenyl)piperazine]

IC50 [1]: 1.5 ng/mL (≈ 3.74 nM)
IC50 [3]: 2.2 ng/mL (≈ 5.48 nM)
IC50 [4]: 1.6 ng/mL (≈ 3.99 nM)
IC50 [5]: 2 ng/mL (≈ 4.98 nM)
IC50 [6]: 6.4 ng/mL (≈ 15.9 nM)
IC50 [7]: 10 ng/mL (≈ 24.9 nM)
SMILES: COc1cc(OC)cc(N2CCN(C(=O)Nc3nc(C)c(C)nc3OC)CC2)c1 [Example 3, 1-[(5,6-Dimethyl-2-methoxypyrazin-3-yl)aminocarbonyl]-4-(3,5-dimethoxyphenyl)piperazine]

IC50 [1]: 43 ng/mL (≈ 103 nM)
IC50 [3]: 93 ng/mL (≈ 224 nM)
IC50 [4]: 6.4 ng/mL (≈ 15.4 nM)
IC50 [5]: 80 ng/mL (≈ 193 nM)
IC50 [6]: 143 ng/mL (≈ 344 nM)
IC50 [7]: 200 ng/mL (≈ 481 nM)
SMILES: COc1cc(OC)cc(N2CCN(C(=O)N(C)c3nc(C)c(C)nc3OC)CC2)c1 [Example 19, 1-[(5,6-Dimethyl-2-methoxypyrazin-3-yl)N-methylaminocarbonyl]-4-(3,5-dimethoxyphenyl)piperazine]

IC50 [1]: < 0.1 ng/mL
IC50 [3]: 0.5 ng/mL (≈ 1.3 nM)
IC50 [4]: 0.6 ng/mL (≈ 1.56 nM)
IC50 [5]: 0.7 ng/mL (≈ 1.82 nM)
IC50 [6]: 0.7 ng/mL (≈ 1.82 nM)
IC50 [7]: 70 ng/mL (≈ 182 nM)
SMILES: COc1nc(C)c(C)nc1NC(=S)N1CCN(c2cc(C)cc(C)c2)CC1 [Example 30, 1-[(5,6-Dimethyl-2-methoxypyrazin-3-yl)aminothiocarbonyl]-4-(3,5-dimethylphenyl)piperazine]

IC50 [1]: 29 ng/mL (≈ 78.1 nM)
IC50 [3]: 84 ng/mL (≈ 226 nM)
IC50 [4]: 32 ng/mL (≈ 86.2 nM)
IC50 [5]: 19 ng/mL (≈ 51.2 nM)
IC50 [6]: 88 ng/mL (≈ 237 nM)
IC50 [7]: 300 ng/mL (≈ 808 nM)
SMILES: COc1ccccc1N1CCN(C(=O)Nc2nc(C)c(C)nc2OC)CC1 [Example 2, 1-[(5,6-Dimethyl-2-methoxypyrazin-3-yl)aminocarbonyl]-4-(2-methoxyphenyl)piperazine]

IC50 [1]: < 0.1 ng/mL
IC50 [3]: 0.1 ng/mL (≈ 0.24 nM)
IC50 [4]: 0.1 ng/mL (≈ 0.24 nM)
IC50 [5]: 0.1 ng/mL (≈ 0.24 nM)
IC50 [6]: 0.6 ng/mL (≈ 1.44 nM)
IC50 [7]: 40 ng/mL (≈ 95.8 nM)
SMILES: COc1cc(OC)cc(N2CCN(C(=S)Nc3nc(C)c(C)nc3OC)CC2)c1 [Example 28, 1-[(5,6-Dimethyl-2-methoxypyrazin-3-yl)aminothiocarbonyl]-4-(3,5-dimethoxyphenyl)piperazine]

IC50 [1]: < 0.1 ng/mL
IC50 [3]: 0.1 ng/mL (≈ 0.229 nM)
IC50 [4]: 0.1 ng/mL (≈ 0.229 nM)
IC50 [5]: 0.1 ng/mL (≈ 0.229 nM)
IC50 [6]: 0.7 ng/mL (≈ 1.6 nM)
IC50 [7]: 100 ng/mL (≈ 229 nM)
SMILES: CCOc1nc2ccccc2nc1NC(=O)N1CCN(c2cc(OC)cc(OC)c2)CC1 [Example 72, 1-[(2-Ethoxyquinoxalin-3-yl)aminocarbonyl]-4-(3,5-dimethoxyphenyl)piperazine]

IC50 [1]: 8 ng/mL (≈ 21.2 nM)
IC50 [3]: 17 ng/mL (≈ 45 nM)
IC50 [4]: 8 ng/mL (≈ 21.2 nM)
IC50 [5]: 1 ng/mL (≈ 2.65 nM)
IC50 [6]: 69 ng/mL (≈ 183 nM)
IC50 [7]: 100 ng/mL (≈ 265 nM)
SMILES: COc1nc(C)c(C)nc1NC(=O)N1CCN(c2cc(F)cc(F)c2)CC1 [Example 12, 1-[(5,6-Dimethyl-2-methoxypyrazin-3-yl)aminocarbonyl]-4-(3,5-difluorophenyl)piperazine]
